# Results taken from ChEMBL document CHEMBL5252614, “Dioncophyllidine E: The first configurationally semi-stable, 7,3'-coupled naphthyldihydroisoquinoline alkaloid, from Ancistrocladus abbreviatus, with antiausterity activity against PANC-1 human pancreatic cancer cells” (2023).
# How the values were obtained:
# Type in all cases: functional
# PANC-1 [1] = test: Induction of cell death in human PANC-1 cells assessed as increase in cells emitting red fluorescence incubated for 24 hrs in nutrient-deprived medium by ethidium bromide/acridine orange staining based analysis; details: dose 10-20 µM
# PANC-1 [2] = test: Inhibition of colony formation in human PANC1 cells assessed as colony area at 40 uM incubated for 24 hrs in normal nutrient DMEM media followed by replacement with fresh media and further incubated for 10 days (reference value: 52%); set-up: scale not given: the % may be the effect or the level left
# PANC-1 [3] = test: Preferential cytotoxicity against human PANC-1 cells in nutrient-deprived medium
# PANC-1 [4] = test: Inhibition of colony formation in human PANC1 cells assessed as colony area at 10 uM incubated for 24 hrs in normal nutrient DMEM media followed by replacement with fresh media and further incubated for 10 days (reference value: 52%); set-up: scale not given: the % may be the effect or the level left
# PANC-1 [5] = test: Inhibition of colony formation in human PANC1 cells assessed as colony area at 20 uM incubated for 24 hrs in normal nutrient DMEM media followed by replacement with fresh media and further incubated for 10 days (reference value: 52%); set-up: scale not given: the % may be the effect or the level left
# PANC-1 [6] = test: Induction of cell death in human PANC-1 cells assessed as alteration in cell morphology incubated for 24 hrs in nutrient-deprived medium by ethidium bromide/acridine orange staining based analysis; details: dose 10-20 µM
compound,measurement,setting,value
COc1cccc2cc(C)c(-c3ccc4c(c3O)C(C)=N[C@H](C)C4)c(O)c12,Activity,PANC-1 [1],Dose-Dependent Effect
same,Activity,PANC-1 [2],24%
same,PC50,PANC-1 [3],7.4 µM
same,Activity,PANC-1 [4],47%
same,Activity,PANC-1 [5],38%
same,Activity,PANC-1 [6],Dose-Dependent Effect
